Patent US7150974B1, “Parathyroid hormone receptor binding method” (The General Hospital Corporation, priority 1991, dated 2006)
“Also recorded” adds a separate entry of the source.

What was measured:
[1] = target: T1, opossum kidney PTH/PTHrP receptor clone, OK-H (Didelphis virginiana, UniProt P25107, I132F/S86P); assay: Inositol phosphate metabolism, COS cells expressing OK-H; format: cell-based; settings: FIG. 15, listed as NlePTH
T1 construct: expressed in transfected cells; host or cells: COS cells, transient, plasmid OK-H (pcDNA I)

[2] = target: T2, carboxy-terminally-truncated rat receptor, R480 (Rattus norvegicus, UniProt P25961); assay: Binding to carboxy-terminally-truncated rat receptor R480 in COS-7 and CHO cells; settings: COS-7 (transient) and CHO (stable) cells
T2 construct: R480, by standard PCR technology using R15B as a template and an upstream primer containing a stop codon inserted at position 481; expressed in transfected cells
T2 sequence (P25961 27-480): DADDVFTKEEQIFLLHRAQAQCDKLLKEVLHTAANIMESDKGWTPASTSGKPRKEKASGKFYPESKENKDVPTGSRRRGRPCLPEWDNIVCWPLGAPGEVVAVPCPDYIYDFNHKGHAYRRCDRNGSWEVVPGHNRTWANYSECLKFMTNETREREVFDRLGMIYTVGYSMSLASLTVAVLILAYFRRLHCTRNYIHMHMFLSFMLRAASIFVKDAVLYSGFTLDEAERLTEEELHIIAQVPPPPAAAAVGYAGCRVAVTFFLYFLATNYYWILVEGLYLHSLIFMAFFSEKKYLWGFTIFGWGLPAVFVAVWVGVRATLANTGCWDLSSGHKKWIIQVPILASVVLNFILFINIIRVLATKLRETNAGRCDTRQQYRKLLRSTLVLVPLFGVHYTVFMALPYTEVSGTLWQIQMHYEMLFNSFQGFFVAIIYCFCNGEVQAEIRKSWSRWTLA
Experimental: [Nle^8,Nle^18,Tyr^34]bPTH-(1-34)amide (NlePTH), and [Tyr^36]PTHrP(1-36)amide(PTHrP) were iodinated with Na^125I (carrier free, New England Nuclear, Boston, Mass.) as previously reported (Segre et al., J. Biol. Chem. 254: 6980, 1979), and purified by reverse-phase HPLC. In brief, the labeled peptide was dissolved in 0.1% trifluoracetic acid (TFA), applied to a C18 Sep-pak cartridge (Waters Associates, Inc., Milford, Mass.) and eluted with a solution of 60% acetonitrile in 0.1% TFA. After lyophilization, the radioligand then was applied to C18-μBondapak column (3.9 mm×30 cm. Waters Associates) and eluted over 30 min with a linear gradient of 30-50% acetonitrile-0.1% TFA at a flow rate of 2 ml/min. The radioligand eluted in two peaks; the first peak, which eluted at approximately 38% acetonitrile, was used in these studies because it gave higher total and specific bindings. […]
Incubations were terminated by aspirating the buffer, and repeatedly (×3) washing the culture dishes, containing the adherent cells with chilled 0.9% NaCl solution, over a 15 sec period. Cell-bound radioactivity was recovered by the sequential addition (×3) of 1 N NaOH (200 μl) to each well. […] A second and third extraction with 1 N NaOH (200 μl) were combined with the first, and the total radioactivity was counted in a γ-spectrometer (Packard Instruments, Downers Grove, Ill.). […]

T1 sequence (P25107 other isoform, or with tags, fused parts or gaps S86P/I132F): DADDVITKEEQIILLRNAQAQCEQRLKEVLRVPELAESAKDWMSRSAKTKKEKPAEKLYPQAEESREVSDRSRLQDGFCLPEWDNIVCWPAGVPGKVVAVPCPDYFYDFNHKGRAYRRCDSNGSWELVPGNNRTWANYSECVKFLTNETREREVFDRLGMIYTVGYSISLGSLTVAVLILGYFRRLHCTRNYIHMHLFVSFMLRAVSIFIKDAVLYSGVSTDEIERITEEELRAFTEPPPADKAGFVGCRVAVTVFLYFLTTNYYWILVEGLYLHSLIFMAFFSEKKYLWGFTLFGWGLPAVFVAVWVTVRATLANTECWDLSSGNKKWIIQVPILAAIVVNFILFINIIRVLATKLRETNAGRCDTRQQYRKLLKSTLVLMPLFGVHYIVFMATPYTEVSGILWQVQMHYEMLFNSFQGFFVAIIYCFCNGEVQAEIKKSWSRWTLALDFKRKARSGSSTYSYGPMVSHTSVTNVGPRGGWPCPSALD

[Nle^8,18, Tyr^34]bPTH(1-34)amide was tested. Which “inositol phosphate metabolism (IP3 and IP2 accumulation)” value [1] did it give?
The value was “do not show a detectable increase; also recorded: did not show any detectable increase”.

And the “affinity for truncated receptor R480 compared with wild type receptor RB” value [2]?
The value was “equivalent affinities”.
